The values below come from ChEMBL document CHEMBL3407331, “Discovery of AM-7209, a potent and selective 4-amidobenzoic acid inhibitor of the MDM2-p53 interaction” (J Med Chem, 2014).

Each structure is given as a SMILES string. Some results are limits rather than exact numbers.

The subject of one data set is SJSA-1. The experiment in a line: cells. As to conditions: Homo sapiens, SJSA-1, 16 h.
Data set [1] deals with T1, CYP3A4 (Homo sapiens, UniProt P08684). The experiment in a line: Inhibition of CYP3A4 (unknown origin) at 3 uM. The data set is classed as ADME.
T1 sequence (P08684 whole entry): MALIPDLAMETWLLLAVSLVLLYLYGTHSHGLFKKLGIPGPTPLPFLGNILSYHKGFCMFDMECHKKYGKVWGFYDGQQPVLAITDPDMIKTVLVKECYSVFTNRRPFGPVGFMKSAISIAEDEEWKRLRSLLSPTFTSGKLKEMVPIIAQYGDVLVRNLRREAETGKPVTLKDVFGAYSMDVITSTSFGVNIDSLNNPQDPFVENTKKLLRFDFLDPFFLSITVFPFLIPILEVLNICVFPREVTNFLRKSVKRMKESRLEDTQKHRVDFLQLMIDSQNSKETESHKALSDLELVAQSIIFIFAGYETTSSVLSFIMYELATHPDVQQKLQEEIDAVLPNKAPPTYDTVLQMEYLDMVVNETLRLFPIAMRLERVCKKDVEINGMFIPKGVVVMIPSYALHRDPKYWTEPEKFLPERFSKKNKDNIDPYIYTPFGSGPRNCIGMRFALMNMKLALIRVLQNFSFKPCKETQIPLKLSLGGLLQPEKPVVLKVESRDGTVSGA
Data set [2] deals with T1, CYP3A4. Put plainly: Time-dependent inhibition of CYP3A4 (unknown origin) assessed as remaining activity at 10 uM after 30 mins. The data set is classed as ADME. As to conditions: read-out: Activity.
The target in a further data set is T2, PXR (NR1I2) (Homo sapiens, UniProt O75469).
T2 sequence (O75469 whole entry): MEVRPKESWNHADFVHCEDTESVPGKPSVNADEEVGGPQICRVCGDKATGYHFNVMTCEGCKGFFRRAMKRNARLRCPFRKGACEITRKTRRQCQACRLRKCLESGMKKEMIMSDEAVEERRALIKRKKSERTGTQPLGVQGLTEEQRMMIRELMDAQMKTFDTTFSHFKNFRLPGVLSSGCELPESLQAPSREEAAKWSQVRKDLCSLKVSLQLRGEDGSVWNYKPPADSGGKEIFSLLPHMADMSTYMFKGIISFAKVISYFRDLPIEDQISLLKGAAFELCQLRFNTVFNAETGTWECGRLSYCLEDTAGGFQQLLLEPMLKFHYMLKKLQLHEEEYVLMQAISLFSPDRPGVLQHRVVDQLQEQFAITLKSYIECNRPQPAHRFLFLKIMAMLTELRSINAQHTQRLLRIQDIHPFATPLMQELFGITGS
Put plainly: Activation of human PXR at 2 uM relative to control. The data set is classed as ADME. As to conditions: read-out: Activity.

Another data set deals with Hepatocyte. The experiment in a line: cells. The note with it: Homo sapiens.
Data set [3] addresses T3, E3 ubiquitin-protein ligase Mdm2 (Homo sapiens, UniProt Q00987).
Data set [4] deals with T3, E3 ubiquitin-protein ligase Mdm2. This is another data set of the same source.
A short description of data set [5]: Drug metabolism in rat hepatocytes treated with AMG 232 at 10 uM after 2 hrs by LC/MS analysis. It counts as ADME, cell-based, Hepatocyte.
Data set [6] can be described thus: Drug metabolism in dog hepatocytes treated with AMG 232 at 10 uM after 2 hrs by LC/MS analysis. The data set is classed as ADME, cell-based, Canis lupus familiaris, Hepatocyte.
The nature of data set [7]: Drug metabolism in cynomolgus monkey hepatocytes treated with AMG 232 at 10 uM after 2 hrs by LC/MS analysis. The data set is classed as ADME, cell-based, Macaca fascicularis, Hepatocyte.
The nature of data set [8]: Drug metabolism in human hepatocytes treated with AMG 232 at 10 uM after 2 hrs by LC/MS analysis. The data set is classed as ADME, cell-based, Hepatocyte.
Data set [9] can be described thus: Drug metabolism in rat hepatocytes treated with 4-(2-((3R,5R,6S)-1-((S)-2-(tert-Butylsulfonyl)-1-cyclopropylethyl)-6-(4-chloro-3-fluorophenyl)-5-(3-chlorophenyl)-3-methyl-2-oxopiperidin-3-yl)acetamido)-2-methoxybenzoic acid at 10 uM after 2 hrs by LC/MS analysis. It counts as ADME, cell-based, Hepatocyte.
Data set [10] can be described thus: Drug metabolism in dog hepatocytes treated with 4-(2-((3R,5R,6S)-1-((S)-2-(tert-Butylsulfonyl)-1-cyclopropylethyl)-6-(4-chloro-3-fluorophenyl)-5-(3-chlorophenyl)-3-methyl-2-oxopiperidin-3-yl)acetamido)-2-methoxybenzoic acid at 10 uM after 2 hrs by LC/MS analysis. The data set is classed as ADME, cell-based, Canis lupus familiaris, Hepatocyte.
Data set [11] in a line: Drug metabolism in cynomolgus monkey hepatocytes treated with 4-(2-((3R,5R,6S)-1-((S)-2-(tert-Butylsulfonyl)-1-cyclopropylethyl)-6-(4-chloro-3-fluorophenyl)-5-(3-chlorophenyl)-3-methyl-2-oxopiperidin-3-yl)acetamido)-2-methoxybenzoic acid at 10 uM after 2 hrs by LC/MS analysis. The data set is classed as ADME, cell-based, Macaca fascicularis, Hepatocyte.
Data set [12] in a line: Drug metabolism in human hepatocytes treated with 4-(2-((3R,5R,6S)-1-((S)-2-(tert-Butylsulfonyl)-1-cyclopropylethyl)-6-(4-chloro-3-fluorophenyl)-5-(3-chlorophenyl)-3-methyl-2-oxopiperidin-3-yl)acetamido)-2-methoxybenzoic acid at 10 uM after 2 hrs by LC/MS analysis. The data set is classed as ADME, cell-based, Hepatocyte.

T3 sequence (Q00987 whole entry): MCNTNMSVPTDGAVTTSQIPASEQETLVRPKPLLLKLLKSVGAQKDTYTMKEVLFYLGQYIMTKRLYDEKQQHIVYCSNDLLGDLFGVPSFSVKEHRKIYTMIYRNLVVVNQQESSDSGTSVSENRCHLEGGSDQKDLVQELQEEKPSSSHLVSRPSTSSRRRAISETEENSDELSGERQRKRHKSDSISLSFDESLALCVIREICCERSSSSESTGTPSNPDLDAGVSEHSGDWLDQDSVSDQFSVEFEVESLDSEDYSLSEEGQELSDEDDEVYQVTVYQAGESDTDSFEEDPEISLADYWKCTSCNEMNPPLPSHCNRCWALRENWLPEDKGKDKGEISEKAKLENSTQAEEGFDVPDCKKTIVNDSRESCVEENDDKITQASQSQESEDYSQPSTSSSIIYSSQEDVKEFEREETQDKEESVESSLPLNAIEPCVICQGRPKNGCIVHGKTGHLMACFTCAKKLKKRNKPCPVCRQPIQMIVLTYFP

As to `COc1cc(C(=O)O)ccc1NC(=O)C[C@@]1(C)C[C@H](c2cccc(Cl)c2)[C@@H](c2ccc(Cl)cc2)N([C@H](CS(=O)(=O)C(C)(C)C)C2CC2)C1=O`, the IC50 in the data set on SJSA-1 turned out to be 6.9 nM. Same read-out and setting: then `CN(C(=O)C[C@@]1(C)C[C@H](c2cccc(Cl)c2)[C@@H](c2ccc(Cl)cc2)N([C@H](CS(=O)(=O)C(C)(C)C)C2CC2)C1=O)c1ccc(C(=O)O)cc1`, with 198 nM.

Turning to `COc1cc(NC(=O)C[C@@]2(C)C[C@H](c3cccc(Cl)c3)[C@@H](c3ccc(Cl)cc3)N([C@H](CS(=O)(=O)C(C)(C)C)C3CC3)C2=O)ccc1C(=O)O`, at CYP3A4 [1], testing at 3 µM gave an inhibition of 14%. The activity at 0.5 h, 10 µM on CYP3A4 [2] was determined as 85%. Further, the activity at 2 µM at PXR (NR1I2) came to 14%. The molecule also displayed an IC50 in the data set with SJSA-1 of 1.9 nM.

`CC(C)(C)S(=O)(=O)C[C@H](C1CC1)N1C(=O)[C@@](C)(CC(=O)N[C@H]2C[C@H](C(=O)O)C2)C[C@H](c2cccc(Cl)c2)[C@H]1c1ccc(Cl)cc1`: the IC50 with SJSA-1 turned out to be 13.5 nM. With `CC(C)(C)S(=O)(=O)C[C@H](C1CC1)N1C(=O)[C@@](C)(CC(=O)O)C[C@H](c2cccc(Cl)c2)[C@H]1c1ccc(Cl)c(F)c1`, in the data set with Hepatocyte, the CLint came out at 26 µL/min/10⁶ cells.

Consider `CC(C)(C)S(=O)(=O)C[C@H](C1CC1)N1C(=O)[C@@](C)(CC(=O)Nc2ccc(C(=O)O)cn2)C[C@H](c2cccc(Cl)c2)[C@H]1c1ccc(Cl)cc1`, for which half-maximal inhibition with SJSA-1 (IC50) required 9 nM.

In the data set with SJSA-1, `CC1(C(=O)O)CCN(C(=O)C[C@@]2(C)C[C@H](c3cccc(Cl)c3)[C@@H](c3ccc(Cl)cc3)N([C@H](CS(=O)(=O)C(C)(C)C)C3CC3)C2=O)CC1` came in with an IC50 of 6.8 nM.

In turn, `CC(C)(C)S(=O)(=O)C[C@H](C1CC1)N1C(=O)[C@@](C)(CC(=O)N2CCC(C(=O)O)CC2)C[C@H](c2cccc(Cl)c2)[C@H]1c1ccc(Cl)cc1` returned a concentration for half-maximal inhibition (IC50) with SJSA-1 of 11.7 nM. The same measure, in the same setting: with `CC(C)(C)S(=O)(=O)C[C@H](C1CC1)N1C(=O)[C@@](C)(CC(=O)N2CC(C(=O)O)C2)C[C@H](c2cccc(Cl)c2)[C@H]1c1ccc(Cl)cc1` the figure was 46 nM. Regarding `CC(C)(C)S(=O)(=O)C[C@H](C1CC1)N1C(=O)[C@@](C)(CC(=O)NC23CCC(C(=O)O)(CC2)CC3)C[C@H](c2cccc(Cl)c2)[C@H]1c1ccc(Cl)cc1`, the inhibition at 3 µM against CYP3A4 [1] is less than 10%. Also, the activity at 0.5 h, 10 µM on CYP3A4 [2] was determined as 75%. For the same molecule, the activity at 2 µM on PXR (NR1I2) worked out at 0%. In the data set on SJSA-1, the IC50 came to 5.9 nM.

In the case of `CC(C)(C)S(=O)(=O)C[C@H](C1CC1)N1C(=O)[C@@](C)(CC(=O)Nc2ccc(C(=O)O)cc2)C[C@H](c2cccc(Cl)c2)[C@H]1c1ccc(Cl)cc1`, the inhibition at 3 µM at CYP3A4 [1] was less than 10%. Further, the activity at 0.5 h, 10 µM on CYP3A4 [2] is 78%. The activity at 2 µM on PXR (NR1I2) came to 0%. Also, the IC50 in the data set with SJSA-1 turned out to be 2.9 nM. As for `CC(C)(C)S(=O)(=O)C[C@H](C1CC1)N1C(=O)[C@@](C)(CC(=O)Nc2ccccc2C(=O)O)C[C@H](c2cccc(Cl)c2)[C@H]1c1ccc(Cl)cc1`, half-maximal inhibition with SJSA-1 (IC50) required 45 nM. `COc1cc(NC(=O)C[C@@]2(C)C[C@H](c3cccc(Cl)c3)[C@@H](c3ccc(Cl)cc3)N([C@H](CS(=O)(=O)C(C)(C)C)C3CC3)C2=O)ccc1C(N)=O` gave an IC50 in the data set on SJSA-1 of 15 nM. In turn, `CC(C)(C)S(=O)(=O)C[C@H](C1CC1)N1C(=O)[C@@](C)(CC(=O)Nc2cccc(C(=O)O)c2)C[C@H](c2cccc(Cl)c2)[C@H]1c1ccc(Cl)cc1` displayed an IC50 with SJSA-1 of 9.7 nM.

Regarding `CC(C)(C)S(=O)(=O)C[C@H](C1CC1)N1C(=O)[C@@](C)(CC(=O)N[C@H]2C[C@@H](C(=O)O)C2)C[C@H](c2cccc(Cl)c2)[C@H]1c1ccc(Cl)cc1`, in the data set with SJSA-1, half-maximal inhibition (IC50) required 22 nM. Turning to `CC(C)(C)S(=O)(=O)C[C@H](C1CC1)N1C(=O)[C@@](C)(CC(=O)Nc2ccc(CC(=O)O)cc2)C[C@H](c2cccc(Cl)c2)[C@H]1c1ccc(Cl)cc1`, the IC50 with SJSA-1 came to 2.7 nM. With `CC(C)(C)S(=O)(=O)C[C@H](C1CC1)N1C(=O)[C@@](C)(CC(=O)N[C@H]2CC[C@@H](C(=O)O)CC2)C[C@H](c2cccc(Cl)c2)[C@H]1c1ccc(Cl)cc1`, the IC50 in the data set with SJSA-1 was 17 nM. Molecule `COc1cc(NC(=O)C[C@@]2(C)C[C@H](c3cccc(Cl)c3F)[C@@H](c3ccc(Cl)cc3)N([C@H](CS(=O)(=O)C(C)(C)C)C3CC3)C2=O)ccc1C(=O)O` gave an inhibition at 3 µM at CYP3A4 [1] of 14%. Also, on CYP3A4 [2], the activity at 0.5 h, 10 µM stood at 72%. Further, the activity at 2 µM on PXR (NR1I2) stood at 0%.

As for `CC(C)(C)S(=O)(=O)C[C@H](C1CC1)N1C(=O)[C@@](C)(CC(=O)O)C[C@H](c2cccc(Cl)c2F)[C@H]1c1ccc(Cl)cc1`, the IC50 in data set [3] was less than 0.1 nM; in [4] it was 6.4 nM; in the data set on SJSA-1 it was 0.8 nM. Further, the CLint in the data set on Hepatocyte stood at 27 µL/min/10⁶ cells.

For the molecule `CC(C)(C)S(=O)(=O)C[C@H](C1CC1)N1C(=O)[C@@](C)(CC(=O)N[C@H]2CC[C@H](C(=O)O)CC2)C[C@H](c2cccc(Cl)c2)[C@H]1c1ccc(Cl)cc1`, the IC50 in the data set with SJSA-1 was found to be 7.5 nM.

Consider `CC(C)[C@@H](CS(=O)(=O)C(C)C)N1C(=O)[C@@](C)(CC(=O)OC2O[C@H](C(=O)O)[C@@H](O)[C@H](O)[C@H]2O)C[C@H](c2cccc(Cl)c2)[C@H]1c1ccc(Cl)cc1` (stereo partly drawn), for which the Drug metabolism entry in [5], in data set [6], in data set [7], in [8], in [9] and in data set [10] was “metabolite_detected” in each case. Moreover, the Drug metabolism result in data set [11] and in [12] was “metabolite_detected” each time. In the case of `CC(C)(C)S(=O)(=O)C[C@H](C1CC1)N1C(=O)[C@@](C)(CC(=O)Nc2ccc(C#N)cc2)C[C@H](c2cccc(Cl)c2)[C@H]1c1ccc(Cl)cc1`, in the data set with SJSA-1, 138 nM corresponded to half-maximal inhibition (IC50).

What is called IC50 is the concentration that gives 50% inhibition. The term inhibition denotes the relative decrease from the control value, in per cent.
